Laboratory results reported in patent US20220194952A1, “TETRAPYRROLIC CONJUGATES AND USES THEREOF FOR IMAGING” (Health Research, Inc., priority 2019, published 2022).
Values belong to the compound of their own block, whether it stands above or below them.

Experiments:
Colon26 tumors [1] = test: PET imaging of 124I-analogs; conditions: ethanol/PBS formulation, 25 μCi/mouse
Method: Compounds were resuspended in 10% ethanol saline, and ˜50 μCi were injected per mouse.
Final product was formulated in 10% ethanol in saline for injection in mice for PET imaging and biodistribution studies. Formulations noted as Pluronic® were formulated in 2% Pluronic® F-127 in saline. Mice were injected with 50 μCi (˜100 μL) for biodistribution, or 100 μCi (˜200 μL) for PET imaging.

Colon26 tumors [2] = test: In vivo biodistribution of 124I-analogs; set-up: species or system BALB/c mice; conditions: for organ distribution (in words): ethanol/PBS formulation, i.v., 24, 48, 72 hours
Method: From left to right, each group is 24 hours 2, 48 hours 2, 72 hours 2, 24 hours 6, 48 hours 6, and 72 hours 6.
The labeled product, 6, was collected and dried.

[3] = Singlet oxygen phosphorescence at 1270 nm, methanol, pulsed laser 532 nm; type: physicochemical; conditions: near 5 μM, equi-absorbant at 532 nm, excited at 532 nm
Method: The photosensitizers, e. g., HPPH (control), 2 and 4 were individually dissolved in methanol (concentration: 5 μM) in polystyrene cuvettes and excited at 532 nm using a pulsed laser. Phosphorescence of singlet oxygen was detected at 1270 nm.
Before evaluating the imaging and photosensitizing potential of the chlorin 4 with extended ring system, its singlet oxygen producing ability was compared with the related chlorin 2. In brief, both compounds were individually dissolved in methanol in equi-absorbant (at 532 nm) concentrations near 5 μM and excited at 532 nm using a pulsed laser. The phosphorescence of singlet oxygen was detected at 1270 nm. From the results summarized in FIG. 4, it can be seen that compared to chlorin 2 with a five-member isocyclic ring, the related analog 4 with an extended ring system had remarkably lower singlet oxygen producing ability. Singlet oxygen quantum yields were φ=0.29 and φ=0.02 respectively, compared to HPPH φ=0.45.

[4] = Photobleaching in 17% bovine calf serum; type: physicochemical; conditions: 660 nm
Method: Photobleaching was performed in quartz cuvettes on a 5 μM solution of 2 and a 25 μM solution of 4 in 17% BCS. The higher molarity was chosen to approximate the absorbance of 2 at 5 μM. A dye laser was used at dose rate 75 mW/cm^2, and excitation wavelength for 2 was 660 nm and for 4 was 785 nm.
In photodynamic therapy, photobleaching is the photochemical alteration of a chromophore or a fluorophore molecule such that could either permanently is unable to fluoresce or alter its fluorescence characteristics. This is caused by cleaving of the covalent bonds or non-specific reaction between the reactive oxygen species (e.g., singlet oxygen) and the molecule. These […] species formed by conversion of the molecular oxygen present in tumor to singlet oxygen by exposing the photosensitizer with light at an appropriate wavelength. The rate of photobleaching of the PS should depend (a) availability of oxygen, (b) photostability of PS and finally (c) the singlet oxygen (or other reactive oxygen species) producing ability of the PS.
To investigate the photobleaching characteristics of the photosensitizers, compounds 2 and 4 in equimolar concentrations (5 μM) were taken in quartz cuvettes in 17% bovine calf serum. Dye lasers with appropriate wavelength (2: 660 nm and 4: 785 nm) were used at a dose rate of 75 mW/cm^2. Both the compounds in formulated forms were irradiated with light and the absorption spectra at their long wavelength absorptions were measured with time. The decay in absorbance was plotted against the time of light exposure.

Colon26 tumors [5] = test: In vivo whole body tumor fluorescence imaging (IVIS Spectrum); set-up: species or system BALB/c mice; conditions: non-radioactive analogs, i.v., post-injection
Method: Before evaluating in vivo PDT efficacy of PS 4 by exposing the tumors with light, the time point for optimal tumor uptake of PS was determined by whole body fluorescence imaging of tumored mice at various time points after injecting the PS.
The multi-spectral imaging system, IVIS Spectrum (Perkin-Elmer) along with Living Image (image acquisition and analysis software) was used. IVIS Spectrum has the capability to use either trans-illumination (from the bottom) or epi-illumination (from the top) to illuminate in vivo fluorescent sources. […] Regions of interest (ROI) were defined for areas of compound accumulation (tumor, liver, skin) and total and average signal within the region were recorded. Fluorescent intensity is expressed as the total radiant efficiency ([p/s]/[μW/cm^2]. Results are expressed as mean total radiant efficiency of three mice±SD.

[6] = Absorbance (UV-VIS) in methanol; type: physicochemical; conditions: ε665 for 2 (peak 660 nm), ε785 for 4 (peak 785 nm)
Method: Absorbance of 2 and 4 was measured using different concentrations in methanol on UV-VIS and indicates far-red peaks at 660 nm and 785 nm, with extinction coefficients ε665=47,500 L·mol^−1 cm^−1 and ε785=18,100 L·mol^−1 cm^−1 respectively.
Chemistry Methods: All reactions were carried out in heat gun-dried glassware under an atmosphere of nitrogen and magnetic stirring. Thin layer chromatography (TLC) was done on pre-coated silica gel sheets (layer thickness 0.2 mm). Column chromatography was performed either using silica gel 60 (70-230 mesh) or neutral alumina grade III. In some cases preparative TLC was used for the purification of compounds. Purity of the compounds was ascertained by TLC and HPLC analysis. All compounds including the intermediates were >95% pure. UV-visible spectra were recorded on FT UV-visible spectrophotometer using methanol as a solvent. Mass spectrometry analyses were performed at the Mass Spectrometry Facility, University at Buffalo, N.Y. Compounds 1 and 2 were synthesized by following the methodologies previously described.

Colon26 tumors [7] = test: In vivo PDT efficacy; set-up: species or system BALB/c mice; conditions: dose 1 μmol/kg; light 135 J/cm^2, 75 mW/cm^2 at 24 h postinjection; 5 mice/group
Method: Tumors were exposed to light (135 J/cm^2, 75 mW/cm^2) at 24 h (hour) postinjection (optimal time for tumor uptake for both the PSs).
For determining the in vivo imaging and therapeutic potential of 2, BALB/c mice (5-10 mice/group) bearing Colon26 tumors were used. In brief, 1×10^6 Colon26 cells were injected in mice subcutaneously. The tumors were left to grow for 1 week until they achieve the desired size (3-5 mm) for treatment. The photosensitizer was injected intravenously following the animal protocol approved by RPCI IACUC committee. Irradiance occurred 24 hours after i. v. injection; light dose was 135 J/cm^2 at a dose rate of 75 mW/cm^2 using the near-IR wavelengths of interest: 665 nm or 789 nm.
Two axes of the tumor (L, longest axis; W, shortest axis) were measured in millimeters with the aid of a Vernier caliper. Tumor weight (mg) was estimated as a formula: tumor weight=1/2 (L×W2). Tumor measurements were taken daily for the first 10 days and at least three tine a week for the first 4 weeks of post therapy and twice a week thereafter. Endpoints were 400 mm^3 tumor volume or 60 days.

Colon26 cells = test: In vitro cytotoxicity (PDT) MTT assay; type: cell-based
Method: Drug concentrations were increased 10× (0.25 to 32.0 μM) and a significant cytotoxicity was observed only at high concentrations at the highest light dose.
Assessment of cell growth following treatment with compound solutions alone and after light exposure was determined by a colorimetric assay that measured the reduction of yellow 3-(4,5-dimethythiazol-2-yl)-2,5-diphenyl tetrazolium bromide (MTT) by mitochondrial succinate dehydrogenase.
Briefly cells were plated into 96 well plates, allowed to adhere to the plate and are treated with a range of compound concentrations for various lengths of time. The light source consisted of dye lasers (375; Spectra-Physics, Mt. View, Calif.) pumped by an argon-ion laser (either 171 or 2080; Spectra-Physics). The dye lasers were tuned to the appropriate wavelength for the compound being tested. Total light doses were ranged from 0.125 to 1.0 J/cm^2 at a fluence rate of 3.2 mW/cm^2. At 48 hours post PDT treatment, MTT was added. The solubilized formazan product was measured spectro-photometrically using a BIOTEK EL-800 plate reader. Data were processed using GEN5 software. A medium blank value was subtracted from all samples and Optical Density (O.D.) values of treated cells were divided by mean O.D. value of untreated cells for each light dose).
Colon26 cells were plated and allowed to adhere for 4 hours, then the photosensitizer was added and incubated at 37° C. for 24 hours. Plates were irradiated with 789 nm light from a dye laser at 3.2 mW/cm^2 for a total dose of 0.25 to 1.0 Joule/cm^2.

time of maximum tumor uptake (PET) (Colon26 tumors [1]): 24 h | organ distribution (in words) (Colon26 tumors [2]): significantly high uptake in spleen
Compound: CCC1=C(C)c2cc3[nH]c(cc4nc(c5c6[nH]c(cc1n2)c(C)c6C(=O)C5)[C@@H](CCC(=O)OC)[C@@H]4C)c(C)c3C(C)OCc1cccc(I)c1 (stereo partly shown) [Compound 2a, 3-(1′-m-iodobenzyloxy) ethyl-3-devinyl-pyropheo phorbide-a methyl ester, reference compound]

Singlet oxygen quantum yield φ [3]: 0.29 | photobleaching experimental endpoint reached ([4]; 5 μM in 17% BCS, 75 mW/cm^2): 20% | fraction photobleached ([4]; 17% bovine calf serum, 5 μM, 75 mW/cm^2, by three hours): 80% | time of optimal uptake in tumor (fluorescence imaging) (Colon26 tumors [5]): 24 h | extinction coefficient at far-red absorbance peak [6]: 47,500 L·mol^−1 cm^−1
Compound: CCC1=C(C)c2cc3[nH]c(cc4nc(c5c6[nH]c(cc1n2)c(C)c6C(=O)C5)[C@@H](CCC(=O)OC)[C@@H]4C)c(C)c3C(C)OCc1cccc([124I])c1 (stereo partly shown) [Compound 2, methyl 3-[1′-(m-iodobenzyloxy)ethyl]-3-devinyl pyropheophorbide]
tumor cure after PDT (Colon26 tumors [7]): 80% | in vitro cytotoxicity at 10× increased drug concentrations (in words) (Colon26 cells; 0.25 to 32.0 μM, significant cytotoxicity only at high concentrations at the highest light dose (FIG. 8B)): toxic effects only at high concentrations | in vitro cytotoxicity (in words) (Colon26 cells; variable drug concentrations, fixed light dose 1.0 J/cm^2 (FIG. 8A)): light dose-dependent cytotoxicity

Singlet oxygen quantum yield φ [3]: 0.45
Compound: HPPH

tumor uptake (Colon26 tumors [2]; BALB/c mice implanted with Colon26 tumors, i.v.): > 9 % of the injected dose
Compound: CCC1=C(C)c2cc3[nH]c(cc4nc(c5c6[nH]c(cc1n2)c(C)c6C=C(OC)C5=O)[C@@H](CCCC(=O)OC)[C@@H]4C)c(C)c3[C@H](C)OCc1cccc([124I])c1 [Compound 6, Methyl 3-[1′-(m-^124iodobenzyloxy)ethyl]-3-devinyl-13^3-keto-13^2methoxycyclohexene (verdin)]
organ distribution (in words) (Colon26 tumors [2]): significantly higher uptake in tumor than other organs
